Tests used:
[1] = Sun Protection Factor of treated fabric, AS/NZS 4399:1996, Melbourne sunlight; conditions: Cotton-cretone; bleached, then fresh bath with 0.01% UV absorber (102) followed by 0.2% compound (101), relative to fabric weight; average of 4 measurements
From the text: (§1) The sun protection factor is defined as the ratio of the harmful dose of UV energy on protected skin to the harmful dose of UV energy on unprotected skin. Accordingly, a sun protection factor is also a measure of the transmissivity of fibre materials untreated and of those treated with FWA's and reactive UV absorbers described in this invention.
(§2) The sun protection factor can be determined, for example, by the method described by B. L. Diffey and J.Robson in J.Soc.Cosmet.Chem., 40, 127-133 (1989).
(§3) Two samples each of 10 g. of a pre-washed cellulose fabric (cotton cretonne) are treated in an AHIBA® dyeing machine for 60 minutes at 95° C. at a liquor ratio of 1:20 in two different aqueous liquors.
(§4) A) 3.0 ml/l hydrogen peroxide 35% • 2.0 ml/l sodium silicate 38° Bé • 2.0 ml/l caustic soda 36° Bé • 0.5 g/l ULTRAVON EL
(§5) B) The same liquor as in A), but containing additionally • 0.012% compound of formula (101) according to Example 1.
Two samples each of 10 g. of a pre-washed cellulose fabric (cotton cretonne or cotton poplin, respectively) are treated in an AHIBA® dyeing machine for 60 minutes at 95° C. at a liquor ratio of 1:20 in an aqueous liquor containing:
The samples are then treated for 10 minutes at 40° C. at a liquor ratio of 1:20 in a fresh bath containing 0.01% (relative to the weight of the fabric) of the compound of the formula [drawing 25] […]

[2] = as above; conditions: Cotton-Poplin; bleached, then fresh bath with 0.01% UV absorber (102) followed by 0.2% compound (101), relative to fabric weight; average of 4 measurements
From the text: as §1, §2, §3, §4, §5
If the procedure of Example 9 is repeated, but with samples of different cellulose fabric (cotton poplin) the results of the following table are obtained.
Two samples each of 10 g. of a pre-washed cellulose fabric (cotton cretonne or cotton poplin, respectively) are treated in an AHIBA® dyeing machine for 60 minutes at 95° C. at a liquor ratio of 1:20 in an aqueous liquor containing: […]

For `CCOc1ccc(NC(=O)C(=O)Nc2ccc(Nc3nc(Cl)nc(Nc4ccc(S(=O)(=O)CCOS(=O)(=O)[O-])cc4)n3)cc2)cc1S(=O)(=O)[O-].[Na+].[Na+]` [compound (102)], the SPF value [1] was “additional improvement” and the SPF value [2] was “additional improvement”.

Reference: patent US20050106114A1, “Process for improving the sun protection factor of cellulosic fibre material” (priority 2002, published 2005)
